Source: patent publication US11484601B2, “Targeting M2-like tumor-associated macrophages by using melittin-based proapoptotic peptide” (TWI[…]., priority 2018, dated 2022)

Assays:
[1] = MTS cell viability assay, M2-type macrophage; type: cell-based, mouse; conditions: mouse, M2 macrophage, 0.6 to 0.5 μM, reaction for 24 hours
Method: (§1) More specifically, dKLA (SEQ ID NO: 2), MEL (SEQ ID NO: 1), MEL-dKLA (SEQ ID NO: 3; […]-d[KLAKLAKKLAKLAK]) peptide and 5-carboxyl tetramethylrhodamine (TMR)-conjugated dKLA, MEL and MEL-KLA peptides were purchased from GenScript (Piscataway, N.J., USA). TMR was conjugated with the amino group located at the N-terminal of the peptide. Regarding all of the peptides, 95% or greater purified peptides were used. Murine Lewis lung carcinoma (LLC) cells and macrophage RAW264.7 of mice were cultured in Dulbecco's modified Eagle's medium (DMEM; Welgene, Korea) to which 10% heat-inactivated fetal bovine serum (Welgene), 100 U/mL penicillin and 100 μg/mL streptomycin (Invitrogen, CA, USA) were added. Macrophage (RAW264.7) differentiated into M2-type was treated with IL-4 and IL-13 in the medium for 24 hours. After the treatment, the cells were cultured in a state in which serum was insufficient for 48 hours. M1-type macrophage was treated with 1 ng/mL of LPS for 24 hours to induce differentiation.
(§2) The cell viability test was measured via the MTS assay. RAW264.7 macrophage was differentiated into M1-type or M2-type macrophage which was inoculated onto a 96-well plate at 3×10^4 cells/well. The next day, the macrophage was treated with each of PBS, dKLA, MEL and MEL-dKLA. After 24 hours, the culture solution was replaced and the cell was treated with 20 μL MTS reaction solution (Promega, WI, USA), followed by reaction at 37° C. Then, […] was measured at 490 nm to measure cell viability.
(§3) The MEL-DM1 anticancer drug conjugation method and cell test method are as described above.

[2] = system: M2 macrophage (RAW264.7 differentiated into M2-type with IL-4 and IL-13); experiment: MTS cell viability assay, M2-type macrophage; type: cell-based, mouse; conditions: 24 hours, read-out: half-maximal inhibitory concentration (IC50) against M2 macrophage
Method: as §1, §2, §3

M2 macrophage = experiment: Annexin V-FITC / MitoTracker flow cytometry, M2 macrophage; type: cell-based, mouse; conditions: 0.8 μM peptide, 6 hours
Method: More specifically, the cells were stained with Annexin V-fluorescein isothiocyanate (FITC; BD Biosciences, CA, USA) and MitoTracker RedBOX (Invitrogen). The cells were inoculated at 5×10^5 cells/well, onto a 24-well plate. The next day, 0.8 μM peptide was applied thereto. In 1, 3 and 6 hours after the application, the cells were reacted with 250 nM MitoTracker for 1 hour in a serum-free culture solution. Thereafter, the cells were collected and reacted with Annexin V again. The reacted cells were measured with BD FACSCalibur, and were analyzed via FlowJo software (Treestar, Inc., CA, USA). MitoTracker could pass through protoplasmic membrane depending on the membrane charge and then accumulated within the mitochondria. In other words, staining may be identified in the mitochondria membrane of living cells, but staining may be difficult in cells where apoptosis occurs due to membrane disturbance.

[3] = system: RAW264.7 cells differentiated into M2 cells; experiment: XF24 Extracellular Flux metabolic measurement (OCR, ECAR); type: cell-based, mouse; conditions: 1 μM peptide, compared to PBS-treated group
Method: […] assay was performed to measure the effect of MEL-dKLA on the metabolic action of mitochondria.
More specifically, the metabolic action was measured using an XF24 Extracellular Flux analyzer (Agilent, CA, USA). RAW264.7 cells were differentiated into M2 cells which were inoculated into XF-24 plates (3×10^4 cells/well). The next day, in order to minimize the potential stress due to changes in the situation, 1 μM of each peptide was applied thereto. Then, the cells were incubated in a 37° C. incubator under 5% CO2 condition. […] Then, the oxygen consumption rate (OCR) and the extracellular acidification rate (ECAR) were measured in real time.
Further, OCR was measured at a time point corresponding to 12 times. The basal state was measured at a time point corresponding to 3 times. Then, ATP-connected respiration after oligomycin addition was measured at a time point corresponding to further 3 times. Then, the maximum respiration after FCCP addition was measured at a time point corresponding to further 3 times. Then, a point at which non-mitochondrial respiration occurred after addition of Rot/AA was measured at a time point corresponding to remaining 3 times. Thus, the mitochondria respiration ability was measured. ECAR indicating the glycolysis rate was measured at the same time points.

LLC tumor cells = experiment: LLC lung cancer tumor model in C57BL/6 mice; type: in vivo, mouse; conditions: 175 nmol/kg intraperitoneally
Method: More specifically, C57BL/6 wild-type mice were purchased from DBL (Korea). LLC tumor cells were mixed with Matrigel (Corning, NY, USA) and then the mixture was injected into the right flank of mice (5×10^4 cells/mouse). Five days after tumor cell injection, the recombinant dKLA, MEL, and MEL-dKLA peptides were injected intraperitoneally thereto for 3 days for a total of three times (175 nmol/kg dosage/weight per each time). All tumor tissues were harvested 12 days after the injection. The animal experiment was approved by the Animal Management Committee of Kyunghee University [KHUASP(SE)-17-087]. The animals were managed via autonomous feeding of water and food under a 12-hour light/dark cycle environment without pathogens.

[4] = system: M1-type tumor-associated macrophage (CD45+F4/80+CD86+); experiment: Flow cytometry of tumor tissue, M1-type TAM; type: in vivo, mouse; conditions: MEL vs PBS and dKLA groups; MEL-dKLA vs MEL group
Method: (§4) More specifically, the tumor cells were thinly crushed and separated from each other in DMEM to which DNasel (1 U/mL) and collagenase D (1 mg/mL) were added. The tissue was gently agitated for 1 hour at 37° C., and separated using a […] nylon mesh filter. Red blood cells were dissolved in Phrmlyse buffer (BE bioscience). Individual cells passed through a 40-μm nylon mesh filter and then were stained with following antibodies: CD4+ T cell (CD45+CD4+CD8−), CD8+ T cell (CD45+CD4−CD8+), Foxp3+ regulatory T cell (CD4+CD25+Foxp3+), dendritic cell (CD45+CD11b+CD11c+), and M1 (CD45+F4/80+CD86+) or M2 macrophage (CD45+F4/80+CD206+): anti-CD45-FITC, anti-CD4-phycoerythrin (PE), anti-CD8-allophycocyanin (APC), anti-CD4-FITC, anti-CD25-PE, anti-Foxp3-Alexa Fluor647, anti-CD11b-APC, anti-CD11c-APCcy7, anti-Grl-PEcy7, anti-CD86-PEcy7, and anti-CD206-APC antibodies. Annexin-V was previously treated to measure the cell percentage of macrophages.

[5] = system: M2-type tumor-associated macrophage (CD45+F4/80+CD206+); experiment: Flow cytometry of tumor tissue, M2-type TAM; type: in vivo, mouse
Method: as §4

Molecule | viability at 24 h [1] | IC50 [2] | cell death of M2 macrophage (Annexin V / MitoTracker) (M2 macrophage) | basal respiration (baseline OCR) [3] | tumor size (LLC tumor cells) | F480+ CD86+ M1-type tumor-associated macrophage in tumor [4] | M2-type TAM cells compared to the PBS-treated group [5] | proportion of M2-type tumor-associated F4/80+ CD206+ TAM in CD45+ leukocytes [5] | tumor growth (LLC tumor cells; three times, compared to PBS control)
CC[C@H](C)[C@H](NC(=O)CN)C(=O)NCC(=O)N[C@@H](C)C(=O)N[C@H](C(=O)N[C@@H](CC(C)C)C(=O)N[C@@H](CCCCN)C(=O)N[C@H](C(=O)N[C@@H](CC(C)C)C(=O)N[C@H](C(=O)N[C@H](C(=O)NCC(=O)N[C@@H](CC(C)C)C(=O)N1CCC[C@H]1C(=O)N[C@@H](C)C(=O)N[C@@H](CC(C)C)C(=O)N[C@H](C(=O)N[C@@H](CO)C(=O)N[C@@H](Cc1c[nH]c2ccccc12)C(=O)N[C@H](C(=O)N[C@@H](CCCCN)C(=O)N[C@@H](CCCNC(=N)N)C(=O)N[C@@H](CCCCN)C(=O)N[C@@H](CCCNC(=N)N)C(=O)N[C@@H](CCC(N)=O)C(=O)N[C@@H](CCC(N)=O)C(N)=O)[C@@H](C)CC)[C@@H](C)CC)[C@@H](C)O)[C@@H](C)O)C(C)C)C(C)C [MEL] | 71 to 79% | 600 to 800 nM | no significant difference was found | no change in baseline OCR | significantly reduced | slightly increased | decreased by half | about 10% | 
d[KLAKLAKKLAKLAK] (D-amino acids) [dKLA, pro-apoptotic peptide KLA, used as control] |  |  | no significant difference was found | no change in baseline OCR |  |  |  | about 20% | tumor steadily grew
